Measured values reported in patent publication US20110218217A1, “PIPERIDYLPROPIONAMIDE DERIVATIVES USEFUL FOR THE TREATMENT OF CNS DISORDERS INCLUDING DEPRESSION AND PANIC DISORDER” (NEUROSEARCH A/S, priority 2008, published 2011).
Like-named read-outs stand apart in the source and are kept apart here.

Experiments:
Type in all cases: biochemical
[1] = molecular target: T1, reuptake of serotonine (5-HT) in synaptosomes (Rattus norvegicus, UniProt P31652); test: Inhibition of 5-HT reuptake in synaptosomes; conditions: 3H-5-HT, read-out: 5-HT-uptake IC50
T1 construct: in synaptosomes as described in WO 97/16451 (NeuroSearch A/S); from tissue
Protocol: (§1) Compounds were tested for their ability to inhibit the reuptake of the monoamine neurotransmitters dopamine (DA) noradrenaline (NA) and serotonine (5-HT) in synaptosomes as described in WO 97/16451 (NeuroSearch A/S).
(§2) The test values are given as IC50 (the concentration (μM) of the test substance which inhibits the specific binding of ^3H-DA, ^3H-NA, or ^3H-5-HT by 50%).

[2] = molecular target: T2, reuptake of noradrenaline (NA) in synaptosomes (Rattus norvegicus, UniProt Q63380); test: Inhibition of NA reuptake in synaptosomes
T2 construct: in synaptosomes as described in WO 97/16451 (NeuroSearch A/S); from tissue
Protocol: as §1, §2

[3] = molecular target: T3, reuptake of dopamine (DA) in synaptosomes (Rattus norvegicus, UniProt P23977); test: Inhibition of DA reuptake in synaptosomes
T3 construct: in synaptosomes as described in WO 97/16451 (NeuroSearch A/S); from tissue
Protocol: as §1, §2

[4] = 3H-NA, synaptosomes, read-out: NA-uptake IC50
[5] = 3H-DA, synaptosomes, read-out: DA-uptake IC50

T3 sequence (P23977 whole entry): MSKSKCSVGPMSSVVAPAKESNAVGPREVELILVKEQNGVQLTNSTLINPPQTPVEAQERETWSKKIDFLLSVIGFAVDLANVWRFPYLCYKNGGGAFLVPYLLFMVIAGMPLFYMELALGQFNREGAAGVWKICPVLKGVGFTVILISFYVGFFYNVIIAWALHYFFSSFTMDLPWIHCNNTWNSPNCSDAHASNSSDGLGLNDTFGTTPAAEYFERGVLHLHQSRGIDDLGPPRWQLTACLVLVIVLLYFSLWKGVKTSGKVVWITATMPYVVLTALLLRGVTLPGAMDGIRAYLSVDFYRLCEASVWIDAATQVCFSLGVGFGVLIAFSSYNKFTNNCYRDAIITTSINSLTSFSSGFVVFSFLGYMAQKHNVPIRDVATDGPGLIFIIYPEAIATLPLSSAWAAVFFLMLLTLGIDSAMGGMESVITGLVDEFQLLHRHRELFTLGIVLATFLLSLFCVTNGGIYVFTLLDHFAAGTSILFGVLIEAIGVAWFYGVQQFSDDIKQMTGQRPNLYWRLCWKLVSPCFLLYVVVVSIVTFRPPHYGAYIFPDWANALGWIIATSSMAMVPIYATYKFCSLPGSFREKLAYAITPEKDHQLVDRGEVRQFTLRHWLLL
T2 sequence (Q63380 1-617): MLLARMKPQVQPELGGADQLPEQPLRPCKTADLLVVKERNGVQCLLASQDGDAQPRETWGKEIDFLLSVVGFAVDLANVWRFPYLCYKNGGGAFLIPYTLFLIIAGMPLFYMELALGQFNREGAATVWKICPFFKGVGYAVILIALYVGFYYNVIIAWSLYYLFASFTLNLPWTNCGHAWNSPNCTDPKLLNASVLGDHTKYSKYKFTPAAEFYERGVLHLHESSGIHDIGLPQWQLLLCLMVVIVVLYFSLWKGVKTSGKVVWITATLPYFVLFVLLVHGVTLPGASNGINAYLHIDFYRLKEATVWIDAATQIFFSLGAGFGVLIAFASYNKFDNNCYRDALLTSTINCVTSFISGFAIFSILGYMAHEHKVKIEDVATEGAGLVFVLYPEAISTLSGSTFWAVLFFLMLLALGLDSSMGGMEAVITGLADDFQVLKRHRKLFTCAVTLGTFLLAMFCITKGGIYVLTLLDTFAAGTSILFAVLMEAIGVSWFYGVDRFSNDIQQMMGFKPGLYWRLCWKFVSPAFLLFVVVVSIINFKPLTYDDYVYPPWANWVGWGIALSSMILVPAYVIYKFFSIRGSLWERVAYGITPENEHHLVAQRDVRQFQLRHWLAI
T1 sequence (P31652 whole entry): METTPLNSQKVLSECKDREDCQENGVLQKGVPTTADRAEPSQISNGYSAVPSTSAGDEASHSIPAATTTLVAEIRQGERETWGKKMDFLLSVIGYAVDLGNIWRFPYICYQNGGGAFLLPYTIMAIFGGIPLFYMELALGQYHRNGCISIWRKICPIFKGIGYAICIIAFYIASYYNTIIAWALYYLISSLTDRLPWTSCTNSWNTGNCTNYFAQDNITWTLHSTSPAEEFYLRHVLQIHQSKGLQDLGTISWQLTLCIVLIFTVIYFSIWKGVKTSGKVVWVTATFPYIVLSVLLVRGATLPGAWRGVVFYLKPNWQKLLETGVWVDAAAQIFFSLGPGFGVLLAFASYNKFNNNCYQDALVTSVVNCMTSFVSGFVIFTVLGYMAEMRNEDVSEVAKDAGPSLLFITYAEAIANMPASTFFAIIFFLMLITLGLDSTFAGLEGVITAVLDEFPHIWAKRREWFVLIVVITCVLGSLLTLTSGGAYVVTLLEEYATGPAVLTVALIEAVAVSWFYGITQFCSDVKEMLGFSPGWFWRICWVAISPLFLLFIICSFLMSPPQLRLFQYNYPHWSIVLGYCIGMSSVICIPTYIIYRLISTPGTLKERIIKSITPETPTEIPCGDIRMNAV

Row | Compound | IC50 [1] [nM] | IC50 [2, 4] [nM] | IC50 [3, 5] [nM] | IC50 [2] [nM] | IC50 [3] [nM]
1 | CCCN(C(=O)CCC1CCN(C)CC1)c1ccc(Cl)c(Cl)c1 [N-(3,4-Dichloro-phenyl)-3-(1-methyl-piperidin-4-yl)-N-propyl-propionamide] | 820 |  |  | 1 | 10
2 | CCCN(C(=O)CCC1CCNCC1)c1ccc(Cl)c(Cl)c1 [N-(3,4-Dichloro-phenyl)-3-piperidin-4-yl-N-propyl-propionamide] | 1400 | 1.9 | 9.8 |  | 
3 | CCN(C(=O)CCC1CCNCC1)c1ccc(Cl)c(Cl)c1 [N-(3,4-Dichloro-phenyl)-N-ethyl-3-piperidin-4-yl-propionamide] | 2100 | 11 | 11 |  | 
4 | CCN(C(=O)CCC1CCNCC1)c1ccc(Br)c(Cl)c1 [N-(4-Bromo-3-chloro-phenyl)-N-ethyl-3-piperidin-4-yl-propionamide] | > 1000 | 2.6 | 3.1 |  | 

Continued, in another order:

Row | IC50 [1] [nM] | IC50 [2, 4] [nM] | IC50 [3, 5] [nM] | Compound | IC50 [2] [nM] | IC50 [3] [nM]
5 | > 1000 | 6.5 | 6.3 | CCN(C(=O)CCC1CCN(C)CC1)c1ccc(Cl)c(Cl)c1 [N-(3,4-Dichloro-phenyl)-N-ethyl-3-(1-methyl-piperidin-4-yl)-propionamide] |  | 
6 | > 1000 | 87 | 330 | CN1CCC(CCC(=O)N(C)c2ccc(Cl)c(Cl)c2)CC1 [N-(3,4-Dichloro-phenyl)-N-methyl-3-(1-methyl-piperidin-4-yl)-propionamide] |  | 
7 | > 1000 | 770 | 220 | CN(C(=O)CCC1CCNCC1)c1ccc(Cl)c(Cl)c1 [N-(3,4-Dichloro-phenyl)-N-methyl-3-piperidin-4-yl-propionamide] |  | 
8 | > 1000 | 1.3 | 6.8 | CCN(C(=O)CCC1CCN(C)CC1)c1ccc(Br)c(Cl)c1 [N-(4-Bromo-3-chloro-phenyl)-N-ethyl-3-(1-methyl-piperidin-4-yl)-propionamide] |  | 
